Assay [1] is described as follows: Induction of pHOT1 DNA (unknown origin) cleavage assessed as conversion of supercoiled DNA to linear and nicked form of DNA at 5 to 500 uM after 30 mins by gel electrophoretic mobility assay.
A further assay concerns the target T1, DNA topoisomerase 1 (Homo sapiens, UniProt P11387).
T1 sequence (P11387 whole entry): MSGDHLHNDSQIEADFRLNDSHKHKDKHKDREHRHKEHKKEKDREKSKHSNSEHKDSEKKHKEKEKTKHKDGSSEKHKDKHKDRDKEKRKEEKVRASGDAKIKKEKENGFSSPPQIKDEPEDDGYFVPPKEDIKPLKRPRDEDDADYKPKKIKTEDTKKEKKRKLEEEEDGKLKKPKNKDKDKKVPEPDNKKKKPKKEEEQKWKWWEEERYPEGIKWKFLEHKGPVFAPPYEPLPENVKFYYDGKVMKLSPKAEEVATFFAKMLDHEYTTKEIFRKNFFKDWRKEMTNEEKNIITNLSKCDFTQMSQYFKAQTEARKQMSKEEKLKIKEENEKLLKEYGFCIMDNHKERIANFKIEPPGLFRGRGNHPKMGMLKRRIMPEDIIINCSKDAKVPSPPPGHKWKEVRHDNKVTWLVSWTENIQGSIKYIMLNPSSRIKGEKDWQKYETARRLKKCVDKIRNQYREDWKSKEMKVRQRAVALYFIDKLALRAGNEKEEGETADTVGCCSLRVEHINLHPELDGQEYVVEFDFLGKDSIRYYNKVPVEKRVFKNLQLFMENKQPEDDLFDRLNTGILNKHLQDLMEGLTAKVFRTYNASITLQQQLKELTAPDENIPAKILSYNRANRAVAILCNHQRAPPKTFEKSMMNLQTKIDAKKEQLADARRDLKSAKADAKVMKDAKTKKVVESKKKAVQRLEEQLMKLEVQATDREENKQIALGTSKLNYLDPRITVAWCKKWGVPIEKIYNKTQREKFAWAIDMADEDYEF
Kind of assay: Inhibition of human topoisomerase 1-mediated DNA cleavage assessed as accumulation of nicked DNA by ethidium bromide staining based electrophoregram.

Assay [2] has as its target DNA topoisomerase 2-alpha (Homo sapiens) (UniProt P11388). As to the kind of experiment: Inhibition of human topoisomerase 2 alpha-mediated DNA cleavage assessed as accumulation of nicked DNA at 0.06 to 10 uM by electrophoregram.
Assay [3] has the same target. As to the kind of experiment: Inhibition of human topoisomerase 2 alpha-mediated DNA cleavage assessed as accumulation of nicked DNA at 0.06 to 10 uM by ethidium bromide staining based electrophoregram.
For assay [4] the target is unchanged. Kind of assay: Inhibition of human topoisomerase 2 alpha-mediated DNA cleavage assessed as linear form of plasmid by electrophoregram.
For assay [5], the target named is T2, DNA topoisomerase 1 (Homo sapiens) (UniProt P11387).
T2 sequence (whole entry): T1 sequence (P11387 whole entry)
As to conditions: 0.06 to 10 uM.
Description: Inhibition of human topoisomerase 1-mediated DNA cleavage assessed as accumulation of nicked DNA at 0.06 to 10 uM by ethidium bromide staining based electrophoregram

What is called IC50 is the midpoint of a concentration-inhibition curve.

The structures appear in SMILES notation. Calls of active or inactive are those of the source. No cut-off for these calls is given here.

Chain of DNA topoisomerase 2-alpha (Homo sapiens) (P11388 whole entry): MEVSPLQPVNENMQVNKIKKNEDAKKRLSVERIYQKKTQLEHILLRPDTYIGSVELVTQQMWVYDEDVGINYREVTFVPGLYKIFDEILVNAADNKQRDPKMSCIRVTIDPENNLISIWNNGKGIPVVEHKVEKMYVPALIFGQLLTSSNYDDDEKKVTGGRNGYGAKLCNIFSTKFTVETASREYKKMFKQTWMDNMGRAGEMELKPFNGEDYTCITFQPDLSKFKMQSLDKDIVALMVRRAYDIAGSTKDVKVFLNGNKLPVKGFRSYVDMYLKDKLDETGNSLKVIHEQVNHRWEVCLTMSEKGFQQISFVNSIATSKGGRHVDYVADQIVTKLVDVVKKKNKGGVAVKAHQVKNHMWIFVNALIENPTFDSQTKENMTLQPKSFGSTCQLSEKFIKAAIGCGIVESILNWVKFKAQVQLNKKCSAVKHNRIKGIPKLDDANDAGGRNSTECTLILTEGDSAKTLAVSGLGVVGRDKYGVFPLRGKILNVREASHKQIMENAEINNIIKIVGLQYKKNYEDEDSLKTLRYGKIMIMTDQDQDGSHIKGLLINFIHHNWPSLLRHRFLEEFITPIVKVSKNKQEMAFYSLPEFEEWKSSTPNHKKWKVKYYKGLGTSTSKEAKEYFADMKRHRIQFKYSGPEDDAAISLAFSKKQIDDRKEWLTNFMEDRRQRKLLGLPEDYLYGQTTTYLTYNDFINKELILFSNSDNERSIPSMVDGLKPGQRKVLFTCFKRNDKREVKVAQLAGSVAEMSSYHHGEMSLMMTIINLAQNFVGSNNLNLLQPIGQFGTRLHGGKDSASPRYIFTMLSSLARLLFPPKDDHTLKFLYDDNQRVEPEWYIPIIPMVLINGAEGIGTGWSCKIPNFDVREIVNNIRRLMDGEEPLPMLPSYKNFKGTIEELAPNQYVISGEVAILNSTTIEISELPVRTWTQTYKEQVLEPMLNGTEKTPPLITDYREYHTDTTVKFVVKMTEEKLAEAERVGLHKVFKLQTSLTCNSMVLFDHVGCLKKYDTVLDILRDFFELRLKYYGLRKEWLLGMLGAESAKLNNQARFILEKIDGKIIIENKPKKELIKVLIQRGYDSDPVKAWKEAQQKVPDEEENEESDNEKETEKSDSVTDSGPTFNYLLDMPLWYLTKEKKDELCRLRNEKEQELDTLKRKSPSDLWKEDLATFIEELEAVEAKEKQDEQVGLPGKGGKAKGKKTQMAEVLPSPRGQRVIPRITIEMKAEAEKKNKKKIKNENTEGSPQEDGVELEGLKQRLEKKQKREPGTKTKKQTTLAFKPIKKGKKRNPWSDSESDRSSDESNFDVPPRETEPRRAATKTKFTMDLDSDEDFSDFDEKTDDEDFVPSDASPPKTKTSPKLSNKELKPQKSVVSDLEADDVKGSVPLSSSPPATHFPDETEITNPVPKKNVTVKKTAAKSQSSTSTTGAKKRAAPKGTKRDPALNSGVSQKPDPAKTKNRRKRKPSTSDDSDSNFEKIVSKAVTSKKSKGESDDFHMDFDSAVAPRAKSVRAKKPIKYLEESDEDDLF

Turning to `O=C(O)CCC/C=C\CC/C=C\Cc1ccccc1`, the result in assay [1] was Active. Moreover, the IC50 at DNA topoisomerase 1 was found to be 0.67 µM. Further, the inhibition result in assay [2], in assay [3] and in assay [5] was “Active” in each case. The inhibition result in assay [4] was “Dose-dependent effect”.
As for `CCCCCCCCCC/C=C\CC/C=C\CCCC(=O)O`, the IC50 at DNA topoisomerase 1 worked out at 0.81 µM.

The record behind these values is ChEMBL document CHEMBL3425460, “Stereoselective synthesis of 11-phenylundeca-5Z,9Z-dienoic acid and investigation of its human topoisomerase I and IIα inhibitory activity” (Bioorg Med Chem Lett, 2015).
